Data on 35 molecules can be found in ChEMBL document CHEMBL3638030, “IC50 data for the L-type calcium channel extracted from a set of literature articles”.

Broadly, the IC50 is the point on the concentration scale where inhibition reaches its midpoint.

The target in assay [1] is T1, Voltage-dependent L-type calcium channel subunit alpha-1C (Rattus norvegicus, UniProt P22002). Put plainly: Inhibition of Cav1.2 calcium current measured using whole cell patch clamp in rat Artery myocytes. It counts as functional, cell-based, Tail. On the set-up: ca sol conc 5 mM, temp 20-22 C. On the technique in general: The patch-clamp technique gives a direct electrical read-out from membranes.

In assay [2] the target is T2, Voltage-dependent L-type calcium channel subunit alpha-1C (Mus musculus, UniProt Q01815). The assay is described as follows: (§1) Inhibition of Cav1.2 calcium current measured using whole cell patch clamp in mouse ventricular myocytes. The assay is classed as functional, cell-based, Heart. On the set-up: ca sol conc 2.5 mM, temp 22-24 C. The note with it: ventricular myocyte.
Target sequence in this assay (Q01815 whole entry): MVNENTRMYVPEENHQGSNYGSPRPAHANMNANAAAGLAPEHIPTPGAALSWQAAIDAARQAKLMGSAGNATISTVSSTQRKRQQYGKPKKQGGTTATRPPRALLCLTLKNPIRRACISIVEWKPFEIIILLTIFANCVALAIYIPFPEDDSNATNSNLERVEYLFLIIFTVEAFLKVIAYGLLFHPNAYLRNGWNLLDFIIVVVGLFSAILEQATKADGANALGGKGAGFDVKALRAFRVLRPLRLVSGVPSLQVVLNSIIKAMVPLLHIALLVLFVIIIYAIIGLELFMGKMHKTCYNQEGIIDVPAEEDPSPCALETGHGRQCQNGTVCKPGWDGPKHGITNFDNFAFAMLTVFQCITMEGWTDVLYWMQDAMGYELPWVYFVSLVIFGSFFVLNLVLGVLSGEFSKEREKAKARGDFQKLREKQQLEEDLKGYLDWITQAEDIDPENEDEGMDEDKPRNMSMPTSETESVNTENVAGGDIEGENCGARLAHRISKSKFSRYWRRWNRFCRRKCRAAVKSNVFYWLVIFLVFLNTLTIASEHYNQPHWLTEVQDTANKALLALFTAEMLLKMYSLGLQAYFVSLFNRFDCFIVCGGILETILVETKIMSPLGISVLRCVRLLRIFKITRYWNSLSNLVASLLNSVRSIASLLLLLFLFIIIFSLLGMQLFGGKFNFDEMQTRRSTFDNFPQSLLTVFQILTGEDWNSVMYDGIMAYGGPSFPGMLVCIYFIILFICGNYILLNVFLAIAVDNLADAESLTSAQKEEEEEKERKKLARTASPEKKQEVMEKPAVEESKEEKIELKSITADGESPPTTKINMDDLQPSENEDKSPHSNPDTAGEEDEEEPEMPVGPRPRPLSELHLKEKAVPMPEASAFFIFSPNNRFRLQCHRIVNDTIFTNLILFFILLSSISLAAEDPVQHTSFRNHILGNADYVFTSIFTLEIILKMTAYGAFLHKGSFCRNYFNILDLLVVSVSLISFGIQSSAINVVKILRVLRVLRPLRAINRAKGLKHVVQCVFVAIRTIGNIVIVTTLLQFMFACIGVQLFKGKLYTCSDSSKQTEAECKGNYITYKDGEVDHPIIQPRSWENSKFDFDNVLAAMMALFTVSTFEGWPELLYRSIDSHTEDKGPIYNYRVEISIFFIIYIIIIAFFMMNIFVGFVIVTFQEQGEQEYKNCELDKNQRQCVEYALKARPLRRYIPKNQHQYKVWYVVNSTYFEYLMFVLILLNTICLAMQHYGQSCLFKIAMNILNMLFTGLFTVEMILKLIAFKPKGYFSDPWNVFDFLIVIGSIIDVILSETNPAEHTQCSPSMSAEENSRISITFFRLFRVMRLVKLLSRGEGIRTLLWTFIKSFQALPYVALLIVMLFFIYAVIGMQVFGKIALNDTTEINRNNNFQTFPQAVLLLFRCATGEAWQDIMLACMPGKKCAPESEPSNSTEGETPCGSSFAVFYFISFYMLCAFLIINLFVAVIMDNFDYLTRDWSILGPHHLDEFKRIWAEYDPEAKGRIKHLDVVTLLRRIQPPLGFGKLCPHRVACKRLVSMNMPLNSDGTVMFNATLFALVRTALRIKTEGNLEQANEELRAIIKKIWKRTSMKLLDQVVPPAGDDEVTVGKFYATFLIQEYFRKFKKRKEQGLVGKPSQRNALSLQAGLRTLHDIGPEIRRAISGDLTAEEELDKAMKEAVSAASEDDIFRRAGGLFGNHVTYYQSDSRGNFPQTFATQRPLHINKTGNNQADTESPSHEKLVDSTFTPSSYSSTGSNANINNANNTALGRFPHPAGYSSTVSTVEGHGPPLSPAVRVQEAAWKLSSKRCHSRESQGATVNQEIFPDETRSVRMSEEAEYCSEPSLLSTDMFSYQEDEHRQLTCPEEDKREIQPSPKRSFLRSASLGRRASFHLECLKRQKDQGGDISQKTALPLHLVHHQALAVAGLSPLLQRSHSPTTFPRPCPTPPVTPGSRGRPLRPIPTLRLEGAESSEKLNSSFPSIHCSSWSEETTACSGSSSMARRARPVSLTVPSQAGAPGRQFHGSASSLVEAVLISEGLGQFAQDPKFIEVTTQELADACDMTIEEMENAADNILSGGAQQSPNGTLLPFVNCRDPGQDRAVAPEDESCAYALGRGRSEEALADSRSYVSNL

Assay [3] addresses T3, Voltage-dependent L-type calcium channel subunit alpha-1C (Cavia porcellus, UniProt O35505). Put plainly: Inhibition of Cav1.2 calcium current measured using whole cell patch clamp in guinea pig atrial myocytes. It counts as functional, cell-based, Heart, Cardiac Muscle Cell. Also noted: ca sol conc 1.8 mM, temp 36 pm 1 C.
Assay [4] concerns the target T2, Voltage-dependent L-type calcium channel subunit alpha-1C. Put plainly: Inhibition of Cav1.2 calcium current measured using in mouse dorsal root ganglion neuron. The assay is classed as functional, tissue-based. On the set-up: temp 20-23 C.
Target sequence in this assay (Q01815 whole entry, looked up): as the sequence (Q01815 whole entry) above
Assay [5] addresses T3, Voltage-dependent L-type calcium channel subunit alpha-1C. Put plainly: (§2) Inhibition of Cav1.2 calcium current measured using whole cell patch clamp in guinea pig ventricular myocytes. It counts as functional, cell-based, Heart, Ventricular myocyte. Also noted: ca sol conc 1.8 mM, temp 25-27 C.
The target in assay [6] is T1, Voltage-dependent L-type calcium channel subunit alpha-1C. Put plainly: (§3) Inhibition of Cav1.2 calcium current measured using whole cell patch clamp in rat ventricular myocytes. The assay is classed as functional, cell-based, Heart, Ventricular myocyte. On the set-up: ca sol conc 2 mM, temp 22-24 C.
The target is the same in assay [7]. Put plainly: Inhibition of Cav1.2 calcium current measured using whole cell patch clamp in rat Vascular smooth muscle cells. On the set-up: ca sol conc 0 (Barium used instead) mM, temp 22 C. It counts as functional, cell-based.
Assay [8] has the same target. Put plainly: (§4) Inhibition of Cav1.2 calcium current measured using whole cell patch clamp in rat myocyte. It counts as functional, Heart, Cardiac Muscle Cell. On the set-up: ca sol conc 1.2 mM, temp 22 C.
For assay [9] the target is unchanged. The description is as §3. The assay is classed as functional, cell-based, Heart, Ventricular myocyte. On the set-up: ca sol conc 1.8 mM, temp 22-26 C.
The target of assay [10] is T3, Voltage-dependent L-type calcium channel subunit alpha-1C. Described as §2. On the set-up: ca sol conc 1.8 mM. The assay is classed as functional, cell-based, Heart, Ventricular myocyte.
The target is the same in assay [11]. The assay is described as §2. It counts as functional, cell-based, Heart, Ventricular myocyte. Also noted: ca sol conc 1.8 mM. This is another data set of the same source.
Assay [12] has the same target. The description is as §2. The assay is classed as functional, cell-based, Heart, Ventricular myocyte. Also noted: ca sol conc 1.8 mM, temp 36 C.
In assay [13] the target is T1, Voltage-dependent L-type calcium channel subunit alpha-1C. The assay is described as §3. It counts as functional, cell-based, Heart, Ventricular myocyte. Also noted: ca sol conc 1 mM, temp 34 C.
In assay [14] the target is T2, Voltage-dependent L-type calcium channel subunit alpha-1C. The description is as §1. Also noted: ca sol conc 2 mM, temp room. It counts as functional, cell-based, Heart, Ventricular myocyte.
Target sequence in this assay (Q01815 whole entry): as above
For assay [15] the target is unchanged. Described as §1. The assay is classed as functional, cell-based, Heart, Ventricular myocyte. On the set-up: ca sol conc 2 mM, temp room. This is another data set of the same source.
Target sequence in this assay (Q01815 whole entry): as above
Assay [16] has as its target T1, Voltage-dependent L-type calcium channel subunit alpha-1C. The assay is described as §3. On the set-up: ca sol conc 1.8 mM, temp 25 C. The assay is classed as functional, cell-based, Heart, Ventricular myocyte.
Assay [17] has the same target. The description is as §4. The assay is classed as functional, Heart. On the set-up: ca sol conc 1.8 mM, temp 20-25 C. The conditions noted are these: cardiac muscle cell.
The target in assay [18] is T4, Voltage-dependent L-type calcium channel subunit alpha-1C (Homo sapiens, UniProt Q13936). Put plainly: (§5) Inhibition of Cav1.2 calcium current measured using whole cell patch clamp in human atrial myocytes. It counts as functional, cell-based, Heart, Cardiac Muscle Cell. On the set-up: ca sol conc 1.8 mM, temp 25 C.
Assay [19] concerns the target T1, Voltage-dependent L-type calcium channel subunit alpha-1C. The assay is described as §4. The assay is classed as functional, Heart, Cardiac Muscle Cell. On the set-up: ca sol conc 1.8 mM, temp 20-25 C.
For assay [20], the target named is Voltage-dependent L-type calcium channel subunit alpha-1C (Oryctolagus cuniculus, UniProt P15381). Put plainly: Inhibition of Cav1.2 calcium current measured using whole cell patch clamp in rabbit ventricular myocytes. On the set-up: ca sol conc 1 - BaCl2 mM, temp 37 C. It counts as functional, cell-based, Heart, Ventricular myocyte.
In assay [21] the target is T1, Voltage-dependent L-type calcium channel subunit alpha-1C. The assay is described as §3. It counts as functional, cell-based, Heart, Ventricular myocyte. On the set-up: ca sol conc 1.8 mM, temp 25-27 C.
The target of assay [22] is L-type calcium channel alpha 1C/beta 2A (Oryctolagus cuniculus, UniProt P15381+P54288). Put plainly: Inhibition of Cav1.2 calcium current measured using whole cell patch clamp in human HEK293 cells transfected with rabbit L-type calcium channel subunits. The assay is classed as functional, cell-based. On the set-up: ca sol conc 5 mM, temp room.
Assay [23] addresses T1, Voltage-dependent L-type calcium channel subunit alpha-1C. Put plainly: Inhibition of Cav1.2 calcium current measured using FLIPR in rat aortic A7r5 cells. The assay is classed as functional, cell-based.
Assay [24] concerns the target T3, Voltage-dependent L-type calcium channel subunit alpha-1C. The assay is described as §2. Also noted: ca sol conc 2 mM, temp 22/37 C. The assay is classed as functional, cell-based, Heart, Ventricular myocyte.
The target in assay [25] is T4, Voltage-dependent L-type calcium channel subunit alpha-1C. The assay is described as §5. The assay is classed as functional, cell-based, Heart, Cardiac Muscle Cell. On the set-up: ca sol conc 2 mM, temp 22/37 C.
Assay [26] addresses T1, Voltage-dependent L-type calcium channel subunit alpha-1C. The assay is described as §3. It counts as functional, cell-based, Heart, Ventricular myocyte. On the set-up: ca sol conc 1 mM, temp 22-25 C.
For assay [27] the target is unchanged. Described as §3. On the set-up: ca sol conc 1.8 mM. The assay is classed as functional, cell-based, Heart, Ventricular myocyte.
In assay [28] the target is T3, Voltage-dependent L-type calcium channel subunit alpha-1C. Described as §2. It counts as functional, cell-based, Heart, Ventricular myocyte. Also noted: ca sol conc 1 mM, temp 35 C.
Assay [29] has the same target. The description is as §2. The assay is classed as functional, cell-based, Heart, Ventricular myocyte. Also noted: ca sol conc 1.8 mM, temp 20-24 C.
For assay [30] the target is unchanged. The description is as §2. It counts as functional, cell-based, Heart, Ventricular myocyte. On the set-up: ca sol conc 1.8 mM, temp 35-36 C.
Assay [31] deals with T2, Voltage-dependent L-type calcium channel subunit alpha-1C. The description is as §1. It counts as functional, cell-based, Heart, Ventricular myocyte. Also noted: ca sol conc 2.5 mM, temp 22-24 C.
Target sequence in this assay (Q01815 whole entry): as above

T1 sequence (P22002 whole entry): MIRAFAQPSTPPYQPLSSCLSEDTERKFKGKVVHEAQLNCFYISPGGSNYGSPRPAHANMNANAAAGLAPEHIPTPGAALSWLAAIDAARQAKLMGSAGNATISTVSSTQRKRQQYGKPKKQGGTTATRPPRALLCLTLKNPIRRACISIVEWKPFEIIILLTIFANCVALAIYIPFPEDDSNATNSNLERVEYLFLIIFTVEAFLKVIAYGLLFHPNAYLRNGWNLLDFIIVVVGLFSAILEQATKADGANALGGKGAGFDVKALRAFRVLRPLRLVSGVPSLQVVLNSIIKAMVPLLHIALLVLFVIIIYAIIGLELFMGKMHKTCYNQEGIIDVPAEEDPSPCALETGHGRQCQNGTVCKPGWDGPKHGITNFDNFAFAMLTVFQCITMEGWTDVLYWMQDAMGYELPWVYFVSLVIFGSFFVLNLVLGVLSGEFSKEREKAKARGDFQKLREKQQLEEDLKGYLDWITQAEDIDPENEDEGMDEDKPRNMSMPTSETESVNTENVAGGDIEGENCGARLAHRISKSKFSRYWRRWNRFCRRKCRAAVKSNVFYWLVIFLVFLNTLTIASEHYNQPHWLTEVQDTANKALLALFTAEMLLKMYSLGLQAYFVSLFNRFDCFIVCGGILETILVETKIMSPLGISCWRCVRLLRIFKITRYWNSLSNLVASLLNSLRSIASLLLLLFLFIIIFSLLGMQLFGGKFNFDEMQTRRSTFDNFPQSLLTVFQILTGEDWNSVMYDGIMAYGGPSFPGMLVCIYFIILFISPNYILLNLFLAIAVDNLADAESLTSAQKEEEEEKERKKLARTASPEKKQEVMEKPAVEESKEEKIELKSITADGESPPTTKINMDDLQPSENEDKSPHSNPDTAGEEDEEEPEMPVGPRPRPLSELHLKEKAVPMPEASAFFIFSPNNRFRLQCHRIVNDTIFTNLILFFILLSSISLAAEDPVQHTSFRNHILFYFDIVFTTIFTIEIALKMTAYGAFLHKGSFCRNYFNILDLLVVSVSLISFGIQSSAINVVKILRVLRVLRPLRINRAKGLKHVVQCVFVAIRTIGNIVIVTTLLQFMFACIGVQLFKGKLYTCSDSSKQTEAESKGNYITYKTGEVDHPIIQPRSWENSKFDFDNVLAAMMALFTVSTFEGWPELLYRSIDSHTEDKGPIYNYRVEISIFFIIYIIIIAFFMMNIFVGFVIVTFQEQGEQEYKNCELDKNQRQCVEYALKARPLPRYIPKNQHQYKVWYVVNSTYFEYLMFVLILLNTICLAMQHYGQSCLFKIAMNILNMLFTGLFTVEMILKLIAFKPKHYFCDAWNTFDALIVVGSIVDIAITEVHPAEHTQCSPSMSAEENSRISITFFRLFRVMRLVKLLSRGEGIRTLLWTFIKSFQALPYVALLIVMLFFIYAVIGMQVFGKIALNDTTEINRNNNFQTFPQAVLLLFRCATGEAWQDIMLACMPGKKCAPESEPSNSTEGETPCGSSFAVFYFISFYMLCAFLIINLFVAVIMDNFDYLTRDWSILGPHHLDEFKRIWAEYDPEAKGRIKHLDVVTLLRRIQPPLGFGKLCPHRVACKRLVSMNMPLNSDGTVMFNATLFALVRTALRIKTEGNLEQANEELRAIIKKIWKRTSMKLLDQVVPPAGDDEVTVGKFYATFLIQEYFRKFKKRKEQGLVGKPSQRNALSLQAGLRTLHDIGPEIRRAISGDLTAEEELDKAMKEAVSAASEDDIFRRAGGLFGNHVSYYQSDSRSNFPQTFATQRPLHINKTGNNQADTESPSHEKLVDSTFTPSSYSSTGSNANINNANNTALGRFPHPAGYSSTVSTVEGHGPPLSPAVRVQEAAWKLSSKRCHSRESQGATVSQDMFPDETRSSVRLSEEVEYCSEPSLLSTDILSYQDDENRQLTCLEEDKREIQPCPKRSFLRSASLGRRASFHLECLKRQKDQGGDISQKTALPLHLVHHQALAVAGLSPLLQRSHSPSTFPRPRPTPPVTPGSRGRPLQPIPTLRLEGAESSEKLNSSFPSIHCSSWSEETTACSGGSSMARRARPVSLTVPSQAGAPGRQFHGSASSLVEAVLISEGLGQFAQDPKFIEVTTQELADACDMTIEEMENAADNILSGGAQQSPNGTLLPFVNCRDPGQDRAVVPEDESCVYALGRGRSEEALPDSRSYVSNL

With `O=C1CC(c2ccc(O)cc2)Oc2cc(O)cc(O)c21` (racemic), the IC50 in assay [1] turned out to be 100 µM.

For the molecule `CC(C)c1c(C(=O)Nc2ccccc2)c(-c2ccccc2)c(-c2ccc(F)cc2)n1CC[C@@H](O)C[C@@H](O)CC(=O)O` [ATORVASTATIN], the IC50 entry in assay [2] is “inactive at 10nM. Original reference for datapoint is pubmed_id: 17466325”.

Turning to `O=c1cc(-c2ccccc2)oc2cc(O)c(O)c(O)c12` [BAICALEIN], the IC50 in assay [1] was found to be 85.1 µM.

As for `CC(C)COCC(CN(Cc1ccccc1)c1ccccc1)N1CCCC1` (centres undefined) [BEPRIDIL], in [3], the IC50 is 1550 nM.

For `CC(C)(c1ccc(O)cc1)c1ccc(O)cc1` [BISPHENOL A], the IC50 in assay [4] was determined as 35 µM.

`O=C(/C=C/c1ccc(O)c(O)c1)OCCc1ccccc1` [CAFFEIC ACID PHENETHYL ESTER]: the IC50 in assay [5] stood at 1100 nM.

Regarding `C=C(C)[C@@H]1CCC(C)=C[C@H]1c1c(O)cc(CCCCC)cc1O` [CANNABIDIOL], the IC50 in assay [6] was found to be 100 nM.

As for `CCC1=C[C@@H]2CN3CCc4c([nH]c5ccccc45)[C@@](C(=O)OC)(C2)[C@@H]13` [CATHARANTHINE BASE], the IC50 in [7] worked out at 8.4 µM; in assay [8] it was 224 µM.

For `Oc1c(CN2CCCC2)cc(Nc2ncnc3ccccc23)cc1CN1CCCC1` [CHANGROLIN], the IC50 in assay [9] came out at 74.7 µM.

In the case of `CN1CCC(=C2c3ccccc3C=Cc3ccccc32)CC1` [CYPROHEPTADINE], the IC50 was 7.75 µM in assay [10] and 42.2 µM in [11].

Take `CCCCc1oc2ccc(NS(C)(=O)=O)cc2c1C(=O)c1ccc(OCCCN(CCCC)CCCC)cc1` [DRONEDARONE]: in [12], the IC50 came to 400 nM.

In the case of `COC(=O)CCc1ccc(OCC(O)CNC(C)C)cc1` (centres undefined) [ESMOLOL], in assay [13], the IC50 was determined as 450 µM.

Take `COc1ccc(CCN(C)CCCOc2ccc(S(=O)(=O)c3c(C(C)C)cn4ccccc34)cc2)cc1OC` [FANTOFARONE]: the half-inhibitory concentration (IC50) in assay [14] was 150 nM; in assay [15], 1.4 nM.

For `O=C(O)c1ccccc1Nc1ccccc1` [FENAMIC ACID], the IC50 in assay [16] came to 470 µM.

`CCC(C)c1ccccc1OC(=O)NC` (centres undefined) [FENOBUCARB]: the half-maximal inhibitory concentration (IC50) in assay [11] worked out at 520 µM.

On to `OC(Cn1cncn1)(Cn1cncn1)c1ccc(F)cc1F` [FLUCONAZOLE], for which, in assay [17], the IC50 result was “inactive at 10uM. Original reference for datapoint is pubmed_id: 22975497”.

Consider `O=c1c(-c2ccc(O)cc2)coc2cc(O)cc(O)c12` [GENISTEIN], for which the IC50 in assay [1] was 57.5 µM.

As to `CCC(C)n1ncn(-c2ccc(N3CCN(c4ccc(OCC5COC(Cn6cncn6)(c6ccc(Cl)cc6Cl)O5)cc4)CC3)cc2)c1=O` (centres undefined) [ITRACONAZOLE], the IC50 result in [17] was “inactive at 10uM. Original reference for datapoint is pubmed_id: 22975497”.

On to `CNC1(c2ccccc2Cl)CCCCC1=O` (centres undefined) [KETAMINE], for which the IC50 in assay [18] was determined as 1800 nM.

As to `CC(=O)N1CCN(c2ccc(OCC3COC(Cn4ccnc4)(c4ccc(Cl)cc4Cl)O3)cc2)CC1` (centres undefined) [KETOCONAZOLE], in assay [19], the IC50 came to 3.5 µM.

Regarding `CC(C)[C@@H]1CC[C@@H](C)C[C@H]1O` [LEVOMENTHOL], the 50% inhibitory concentration (IC50) in [20] is 74.6 µM.

Consider `COc1ccc(OCCCN(C)CCOc2ccc3c(c2)OCO3)c([C@@H]2Sc3ccccc3N(C)C2=O)c1` [LEVOSEMOTIADIL], for which the half-inhibitory concentration (IC50) in assay [3] turned out to be 1290 nM.

In the case of `O=C1c2ccccc2-c2c3c(cc4ccnc1c24)OCO3` [LIRIODENINE], the IC50 in [21] came to 2500 nM.

On to `O=c1cc(N2CCOCC2)oc2c(-c3ccccc3)cccc12` [LY-294002], for which the half-maximal inhibitory concentration (IC50) in assay [22] is 12 µM.

On to `COCC(=O)O[C@]1(CCN(C)CCCc2nc3ccccc3[nH]2)CCc2cc(F)ccc2[C@@H]1C(C)C` [MIBEFRADIL], for which the IC50 in [23] was 1100 nM.

As for `Clc1ccc(COC(Cn2ccnc2)c2ccc(Cl)cc2Cl)c(Cl)c1` (centres undefined) [MICONAZOLE], the IC50 in assay [19] stood at 3 µM.

Consider `CCCOC(C(=O)OC1CCN(C)CC1)(c1ccccc1)c1ccccc1` [PROPIVERINE], for which the half-maximal inhibitory concentration (IC50) in [24] turned out to be 34.7 µM; in [25], 41.7 µM.

In the case of `O=c1c(O)c(-c2ccc(O)cc2)oc2cc(O)ccc12` [RESOKAEMPFEROL], in assay [1], the IC50 stood at 27.5 µM.

For the molecule `O=C(/C=C/c1ccc(O)c(O)c1/C=C/c1ccc(O)c(O)c1)O[C@H](Cc1ccc(O)c(O)c1)C(=O)O` [SALVIANOLIC ACID A], the IC50 in assay [26] amounted to 38.3 µM.

As for `CC(C)CC(N(C)C)C1(c2ccc(Cl)cc2)CCC1` (centres undefined) [SIBUTRAMINE], the IC50 in assay [27] was 9.97 µM.

`CN1CCN(c2ncc(-c3cc(Cl)cc(Cl)c3Cl)c(N)n2)CC1` [SIPATRIGINE]: the IC50 in assay [28] came out at 6.02 µM.

As for `COc1ccc(S(=O)(=O)NCc2cc(CN3CCCC3)c(O)c(CN3CCCC3)c2)cc1` [SULCARDINE], the IC50 in [29] is 69.2 µM.

On to `CCN(CC)CC#CC(C)(C)OC(=O)C(O)(c1ccccc1)C1CCCCC1` (centres undefined) [TEMIVERINE], for which, in [30], the IC50 amounted to 27 µM.

Turning to `CCC(C)(C)C(=O)O[C@H]1C[C@@H](C)C=C2C=C[C@H](C)[C@H](CC[C@@H](O)C[C@@H](O)CC(=O)O)[C@H]21` [TENIVASTATIN], the IC50 in assay [31] was found to be 3.9 µM.

Regarding `CC(CC(c1ccccc1)c1ccccc1)NC(C)(C)C` (centres undefined) [TERODILINE], the IC50 in assay [30] was 33.5 µM.
